PMC12196264, “Design and Synthesis of Pyridine-Based Pyrrolo[2,3-d]pyrimidine Analogs as CSF1R Inhibitors: Molecular Hybridization and Scaffold Hopping Approach” (Pharmaceuticals, 2025)
Converted amounts (≈) assume the structure as drawn.

Experiments:
Kinetic solubility = format: physicochemical; details: aqueous buffer, kinetic from dmso stock; spectrophotometric, pH 7.4 in HEPES buffer
Protocol: (§1) The aqueous solubility of the compounds and metabolic stability under oxidative conditions was performed as described previously.

MDCK permeability assay = format: in vitro ADME, canine; details: dog, MDCK monolayer; for Papp A→B: A–B direction; for Papp B→A: B–A direction; for efflux ratio: read-out: MDCK Ratio (Papp B–A/A–B)
Protocol: Six selected compounds were assessed for metabolic stability (clearance) in mouse liver microsomes (MLM) and human liver microsomes (HLM), and apparent permeability (Papp) using a MDCK permeability assay. […] Although currently limited by solubility and permeability, its metabolic profile provides a starting point for targeted structural modifications aimed at overcoming these challenges.

[1] = system: Ba/F3 cells engineered to be dependent on CSF1R; experiment: Cell viability assay with Ba/F3-hCSF1R cells; format: cell-based; details: for IC50: Mus musculus, BaF3, Ba/F3 cells dependent on CSF1R, with standard deviation, read-out: Cellular Assay IC50 (μM), Ba/F3 CSF1R
Protocol: (§2) Given the promising enzymatic activity of the synthesized derivatives, cellular assays were performed using Ba/F3 cells engineered to depend on constitutively active CSF1R. […] We have also previously observed a low correlation between enzymatic and cellular activities, which may arise from the enzymatic protein construct not accurately mimicking the active conformation of CSF1R in a cellular context.
(§3) Performed as reported previously.

cKIT = cKIT (Homo sapiens, UniProt P10721); experiment: KIT-WT LanthaScreen binding assay (Kd); details: single eight-point titrations, TR-FRET LanthaScreen Binding Assay; R^2 of fit in parentheses; read-out: Enzymatic Assay KIT (Kd)
Protocol: The TR-FRET-based LanthaScreen Binding Assay was performed to determine Kd values of synthesized derivatives against cKIT.
Subsequently, 8 µL of kinase anti-GST antibody mixture was added, followed by incubation at 4 °C for 30 min in a pre-cooled, humidified box to minimize edge effects. The reaction was initiated by adding 5 µL of tracer working solution and mixed on a Bioshake 5000 microplate shaker (Q Instruments, Jena, Germany). […] Kd values were calculated from sigmoidal dose-response curves using Scigilian Analyze software version 5.8.5.15 (Scigilian, Montreal, QC, Canada).

[2] = Microsomal stability, mouse liver microsomes; format: in vitro ADME; details: mouse liver microsome
Protocol: as §1

CSF1R = CSF1R (Homo sapiens, UniProt P07333); experiment: CSF1R enzymatic inhibitory assay (TR-FRET LANCE Ultra); format: biochemical; details: single eight-point titrations, ATP 25 μM, R^2 of fit in parentheses
Protocol: The TR-FRET-based LANCE Ultra assay (Perkin Elmer, Waltham, MA, USA) was used to determine IC50 values for various CSF1R inhibitors. Kinase activity and inhibition in this assay was measured as previously reported. Scigilian Analyze software version 5.8.5.15 (Scigilian, Montreal, QC, Canada) was used.

[3] = system: Ba/F3 cells engineered to be dependent on CSF1R but added additional IL-3; experiment: Cell viability assay with Ba/F3-hCSF1R cells with added IL-3; format: cell-based; details: Mus musculus, BaF3; Ba/F3 CSF1R cells with additional IL-3; read-out: Cellular Assay IC50 (μM), Ba/F3 IL-3
Protocol: as §2, §3

Chain of CSF1R (P07333 20-972): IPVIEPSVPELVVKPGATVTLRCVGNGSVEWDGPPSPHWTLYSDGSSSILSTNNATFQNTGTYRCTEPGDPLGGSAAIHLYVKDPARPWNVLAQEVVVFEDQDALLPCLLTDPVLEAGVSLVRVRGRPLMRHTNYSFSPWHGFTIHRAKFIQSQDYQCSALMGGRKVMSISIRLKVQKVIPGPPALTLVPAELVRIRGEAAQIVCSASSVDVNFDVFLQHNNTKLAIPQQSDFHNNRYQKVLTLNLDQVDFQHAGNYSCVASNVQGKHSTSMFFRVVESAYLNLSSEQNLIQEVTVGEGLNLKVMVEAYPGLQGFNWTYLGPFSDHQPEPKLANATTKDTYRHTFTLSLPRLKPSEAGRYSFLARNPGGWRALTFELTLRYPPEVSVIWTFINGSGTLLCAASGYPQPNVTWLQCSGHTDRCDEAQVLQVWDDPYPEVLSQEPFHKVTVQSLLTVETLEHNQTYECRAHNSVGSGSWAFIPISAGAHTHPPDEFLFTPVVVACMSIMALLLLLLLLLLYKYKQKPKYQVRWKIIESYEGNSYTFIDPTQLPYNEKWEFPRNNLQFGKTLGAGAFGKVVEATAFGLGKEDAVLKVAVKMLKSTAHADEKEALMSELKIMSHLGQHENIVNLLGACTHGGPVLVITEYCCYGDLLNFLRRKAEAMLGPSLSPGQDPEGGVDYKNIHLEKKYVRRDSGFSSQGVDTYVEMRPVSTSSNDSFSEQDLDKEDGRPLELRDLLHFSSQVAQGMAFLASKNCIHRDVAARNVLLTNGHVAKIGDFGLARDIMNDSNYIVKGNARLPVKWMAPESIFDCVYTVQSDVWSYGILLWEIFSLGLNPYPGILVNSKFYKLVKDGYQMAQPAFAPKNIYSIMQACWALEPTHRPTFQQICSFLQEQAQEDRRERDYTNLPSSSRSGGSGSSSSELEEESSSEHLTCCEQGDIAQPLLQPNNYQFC
Chain of cKIT (P10721 26-976): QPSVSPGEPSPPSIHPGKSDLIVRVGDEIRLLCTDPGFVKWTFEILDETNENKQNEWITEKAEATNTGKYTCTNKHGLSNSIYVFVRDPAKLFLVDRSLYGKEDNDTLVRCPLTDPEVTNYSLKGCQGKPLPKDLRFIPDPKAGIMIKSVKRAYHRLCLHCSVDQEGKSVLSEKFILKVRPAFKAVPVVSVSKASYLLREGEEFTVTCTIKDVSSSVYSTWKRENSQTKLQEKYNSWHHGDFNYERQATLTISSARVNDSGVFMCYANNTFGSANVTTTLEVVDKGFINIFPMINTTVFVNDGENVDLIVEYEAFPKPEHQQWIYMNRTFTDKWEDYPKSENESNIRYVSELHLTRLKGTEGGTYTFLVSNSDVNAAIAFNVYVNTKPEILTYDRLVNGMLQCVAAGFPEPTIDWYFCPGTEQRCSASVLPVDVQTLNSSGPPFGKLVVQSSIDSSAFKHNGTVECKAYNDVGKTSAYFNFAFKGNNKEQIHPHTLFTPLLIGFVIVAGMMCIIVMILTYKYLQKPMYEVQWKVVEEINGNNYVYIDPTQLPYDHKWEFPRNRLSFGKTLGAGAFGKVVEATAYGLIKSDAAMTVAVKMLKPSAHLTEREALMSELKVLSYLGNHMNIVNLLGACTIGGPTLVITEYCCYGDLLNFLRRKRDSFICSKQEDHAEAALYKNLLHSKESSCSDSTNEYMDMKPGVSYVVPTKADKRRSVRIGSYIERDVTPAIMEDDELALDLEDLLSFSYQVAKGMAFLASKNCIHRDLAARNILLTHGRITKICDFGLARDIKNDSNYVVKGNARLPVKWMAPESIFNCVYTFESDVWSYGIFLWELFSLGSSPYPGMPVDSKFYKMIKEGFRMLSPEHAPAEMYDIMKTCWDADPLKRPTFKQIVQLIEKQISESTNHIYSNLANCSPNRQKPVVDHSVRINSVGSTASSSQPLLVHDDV

Row | solubility kinetic (Kinetic solubility) [µM] | Papp A→B (MDCK permeability assay) [×10⁻⁶ cm/s] | Papp B→A (MDCK permeability assay) [×10⁻⁶ cm/s] | efflux ratio (MDCK permeability assay) | IC50 [1] [µM] | Kd (cKIT) [nM] | MLM in vitro intrinsic clearing [2] [µL/min/mg] | IC50 (CSF1R) [nM] | IC50 [3] [µM] | SMILES | Cellular activity in Ba/F3 CSF1R cells (in words) ([1]; Ba/F3 cells dependent on constitutively active CSF1R)
1 | – | – | – | – | 6.24 | > 1000 | – | 10.5 | 9.25 | COc1ccc(CNc2ccc(-c3cc4c(N(C)Cc5cccc(C)c5)ncnc4[nH]3)cn2)cc1 [Compound 12e, 6-(6-((4-Methoxybenzyl)amino)pyridin-3-yl)-N-methyl-N-(3-methylbenzyl)-7H-pyrrolo[2,3-d]pyrimidin-4-amine] | –
2 | – | – | – | – | – | > 1000 | – | > 1000 | – | Cc1cccc(CN(C)c2ncnc3[nH]c(-c4ccc(NCc5cccc(C)c5C)nc4)cc23)c1 [Compound 12d, 6-(6-((2,3-Dimethylbenzyl)amino)pyridin-3-yl)-N-methyl-N-(3-methylbenzyl)-7H-pyrrolo[2,3-d]pyrimidin-4-amine] | –
3 | – | – | – | – | – | > 1000 | – | 6 | – | Cc1cccc(CN(C)c2ncnc3[nH]c(-c4ccc(NCc5ccccc5)nc4)cc23)c1 [Compound 14a, 6-(6-(Benzylamino)pyridin-3-yl)-N-methyl-N-(3-methylbenzyl)-7H-pyrrolo[2,3-d]pyrimidin-4-amine] | –

Continued, compound first:

Row | SMILES | solubility kinetic (Kinetic solubility) [µM] | Papp A→B (MDCK permeability assay) [×10⁻⁶ cm/s] | Papp B→A (MDCK permeability assay) [×10⁻⁶ cm/s] | efflux ratio (MDCK permeability assay) | IC50 [1] [µM] | Kd (cKIT) [nM] | MLM in vitro intrinsic clearing [2] [µL/min/mg] | IC50 (CSF1R) [nM] | IC50 [3] [µM] | Cellular activity in Ba/F3 CSF1R cells (in words) ([1]; Ba/F3 cells dependent on constitutively active CSF1R)
4 | CN(Cc1ccc(NCc2ccccc2)nc1)c1ncnc2[nH]ccc12 [Compound 4a, N-((6-(Benzylamino)pyridin-3-yl)methyl)-N-methyl-7H-pyrrolo[2,3-d]pyrimidin-4-amine] | 20.9 (≈ 7.2 µg/mL) | 34 | 24.7 | 0.72 | 1.16 ± 0.22 | > 1000 | 277.3 | 857 | 1.39 ± 0.4 | relatively high cellular activity
5 | Cc1cccc(CN(C)c2ncnc3[nH]cc(-c4ccc(NCc5cccnc5)nc4)c23)c1 [Compound 8, N-Methyl-N-(3-methylbenzyl)-5-(6-((pyridin-3-ylmethyl)amino)pyridin-3-yl)-7H-pyrrolo[2,3-d]pyrimidin-4-amine] | 70.4 (≈ 30.7 µg/mL) | 15.9 | 4.4 | 0.27 | 8.46 ± 0.89 | 397 | 1540.3 | > 1000 | > 10 | –
6 | CN(Cc1ccc(NCc2ccccn2)nc1)c1ncnc2[nH]ccc12 [Compound 4b, N-Methyl-N-((6-((pyridin-2-ylmethyl)amino)pyridin-3-yl)methyl)-7H-pyrrolo[2,3-d]pyrimidin-4-amine] | 441 (≈ 152 µg/mL) | 42 | 28.8 | 0.69 | > 10 | > 1000 | 101.9 | > 1000 | > 10 | –
7 | CN(Cc1ccc(NCc2ccc(C(F)(F)F)nc2)nc1)c1ncnc2[nH]ccc12 [Compound 4c, N-Methyl-N-((6-(((6-(trifluoromethyl)pyridin-3-yl)methyl)amino)pyridin-3-yl)methyl)-7H-pyrrolo[2,3-d]pyrimidin-4-amine] | 20.9 (≈ 8.64 µg/mL) | 18.3 | 10 | 0.55 | 9.96 ± 0.02 | > 1000 | 150.7 | > 1000 | > 10 | –
8 | FC(F)(F)c1ccc(CNc2ccc(Cc3c[nH]c4ncc(Cl)cc34)cn2)cn1 [Pexidartinib, reference compound] | 20.5 (≈ 8.57 µg/mL) | 4.5 | 1.5 | – | 0.064 ± 0.04 | – | – | – | 6.54 ± 0.61 | –
